Values of other authors as cited in patent publication US8685965B2, “CGRP receptor antagonists” (Merck Sharp & Dohme Corp., priority 2008, dated 2014).
Ends that are not written are not given here.

Experiments:
facial blood flow [1] = details: marmoset; Doods et al. 2000
[2] = system: acute attacks of migraine; details: clinical trials; Olesen et al. 2004
[3] = system: headache induced by CGRP infusion; details: control group; Petersen et al. 2005
facial blood flow [4] = details: rat; Escott et al. 1995
middle meningeal artery = details: rats, prior administration; Williamson et al. 1997

Molecule	effect on increase of facial blood flow after electrical stimulation of the trigeminal ganglion (facial blood flow [1])	efficacy in treating acute attacks of migraine [2]	prevention of headache induced by CGRP infusion [3]	effect on increase of facial blood flow after trigeminal ganglion stimulation (facial blood flow [4])	effect on increase of middle meningeal artery diameter after electrical stimulation of the dura mater (middle meningeal artery)
NCCCC[C@H](NC(=O)[C@@H](Cc1cc(Br)c(O)c(Br)c1)NC(=O)N1CCC(N2Cc3ccccc3NC2=O)CC1)C(=O)N1CCN(c2ccncc2)CC1 [BIBN4096BS]	could be blocked	effective in treating acute attacks of migraine	able to prevent headache induced by CGRP infusion		
CGRP(8-37): a peptide CGRP antagonist; fragment of CGRP that lacks seven N-terminal amino acid residues (VTHRLAGLLSRSGGVVKNNFVPTNVGSKAF; ends and bridges not checked; UniProt P06881 90-119, looked up, fragment)				inhibited	blocked
